Measured values: patent publication US8426386B2, “NK1 receptor antagonist composition” (Lion Corporation, priority 2006, dated 2013)

System: NK1 receptor
Test: NK1 Receptor Antagonism Assay (calcium imaging, substance P stimulation)
Assay type: cell-based, human
Conditions: for Efficacy (NK1 receptor antagonistic activity grade): substance P 100 μM; for effect as the NK1 receptor antagonist (in words): summary of Table 1
Text: [Performance Evaluation Test] NK1 Receptor Antagonism Assay
In this test, maltose, maltotriose, maltotetraose, maltopentaose, maltohexaose and maltoheptaose were purchased from SIGMA, isomaltose, isomaltotriose, isomaltotetraose, isomaltopentaose, isomaltohexaose and isomaltoheptaose were purchased from Seikagaku Corporation, and four types of oligosaccharides-1-kestose, fructofranosylnystose, nystose and galactotetraose—were purchased from Wako Pure Chemicals Industries Ltd. Each oligosaccharide was diluted with saline, and used.
In order to transiently express a cloned human NK1 receptor in HEK293, cDNA of the human NK1 receptor was cut out from pCDM8 (Invitrogen), and cloned in an expression vector pCDM9 derived by inserting an ampicillin resistant gene (BLUESCRIPT, nucleotides 1973 to 2964 from SK+) at a SacII site.
HEK293 cells were seeded at 1×10^5 cells in a Falcon dish (diameter: 3.5 cm) using α-MEM medium (Gibco) containing 10% bovine fetal serum, and cultured in a 5% CO2 incubator at 37° C. overnight. Then, 20 μg of the expression vector was transfected using Transfection Reagent FuGENE6 (Roche) according to attached instructions, and the transfectants were incubated at 37° C. for 3 days and assayed by a calcium imaging method.
According to Renganathan et al's method (Renganathan M et al., J. Neurophysiol., 84(2), […] (2000)), nerve cells were dispersed and isolated from spinal dorsal root ganglion in a wild type mouse, and 1×10^5 thereof were seeded in a 24-well plate coated with poly-L-lysine. The cells were cultured in 90% DMEM medium (GIBCO) supplemented with 10% bovine fetal serum, 2 mM glutamine, 100 U/mL of penicillin/streptomycin, 100 ng/mL of NGF (SIGMA) and 5 μM cytosine arabinoside (SIGMA) under 5% CO2 at 37° C. The cells were cultured for 1 to 3 weeks, and subsequently subjected to a calcium imaging analysis. A half of the nerve cells was identified to be positive for the NK1 receptor by staining the nerve cells derived from spinal dorsal root ganglion in the wild type mouse with an anti-NK1 receptor antibody (supplied from CHEMICON International).
The cells which express the NK1 receptor transiently or constitutively were subjected to measurement using a high resolution digital B/W cooling CCD camera (ORCA supplied from Hamamatsu Photonics K.K.), and their images were analyzed using an analysis software (AQUA COSMOS supplied from Hamamatsu Photonics K.K.). When the cells were labeled for calcium, Fluo4-AM (supplied from Molecular Probe) was used as a calcium sensitive dye. Fifty μg of Fluo4-AM was dissolved in 400 μL of DMSO in a vial, 4 μL of Pluronic F-127 (Molecular Probe) was added and mixed, and then 4 mL of OPTI-MEM (GIBCO) was added thereto. The calcium sensitive dye solution thus prepared was added to the cells, which were then incubated at 37° C. for 60 minutes. An agonist, an antagonist and samples to be evaluated were prepared at concentrations which were 10 times higher than assay concentrations, and analyzed by adding a one tenth volume of the cell suspension upon analysis. All reagents and an assay temperature were kept at 37° C. For the cells transfected transiently, YFP reporter DNA fluorescence (excitation: 490 nm) was used for identifying the transfected cells. Upon measurement, a fluorescence intensity obtained by initially imaging the untreated cells was made an initial value. After passing one minute, a change of calcium/fluorescence intensity in the sample to be evaluated at the desired concentration was monitored with an interval of one second before and after the addition (2 to 5 minutes). Subsequently, substance P was added, and immediately after (2 to 5 minutes), an antagonistic activity of the sample to be evaluated was determined by monitoring the change of intracellular calcium concentrations as the change of the fluorescence intensities with the interval of one second. […]

[1] = evaluated concentration 0.1 ppm
[2] = evaluated concentration 100 ppm
[3] = evaluated concentration 1000 ppm

SMILES | Efficacy (NK1 receptor antagonistic activity grade) [1] | Efficacy (NK1 receptor antagonistic activity grade) (evaluated concentration 1 ppm) | Efficacy (NK1 receptor antagonistic activity grade) (evaluated concentration 10 ppm) | Efficacy (NK1 receptor antagonistic activity grade) [2] | Efficacy (NK1 receptor antagonistic activity grade) [3] | effect as the NK1 receptor antagonist (in words) | efficacy at a low concentration (in words) (0.1 ppm)
OC[C@H]1O[C@H](O[C@H]2[C@H](O)[C@@H](O)C(O)O[C@@H]2CO)[C@H](O)[C@@H](O)[C@@H]1O (mixture of isomers) [Maltose, maltose] | D (Ineffective: the antagonistic activity was less than 65%, or the stimulating or agonistic activity of the sample was strong.) | D (Ineffective: the antagonistic activity was less than 65%, or the stimulating or agonistic activity of the sample was strong.) | C (Slightly effective: the antagonistic activity was less than 65%, and a stimulating or agonistic activity of the sample was weak.) | C (Slightly effective: the antagonistic activity was less than 65%, and a stimulating or agonistic activity of the sample was weak.) | B (Effective: the antagonistic activity was 65% or more and less than 75% and the more excellent performance than in the positive control was shown.) | high effect | 
OC[C@H]1O[C@@](CO)(OC[C@@]2(O[C@H]3O[C@H](CO)[C@@H](O)[C@H](O)[C@H]3O)O[C@H](CO)[C@@H](O)[C@@H]2O)[C@@H](O)[C@@H]1O [Example 1-Kestose, 1-kestose, reference compound] |  |  |  |  | D (Ineffective: the antagonistic activity was less than 65%, or the stimulating or agonistic activity of the sample was strong.) | no NK1 receptor antagonistic activity was observed at all | 
OC[C@H]1O[C@@](CO)(OC[C@@]2(OC[C@@]3(OC[C@@]4(O[C@H]5O[C@H](CO)[C@@H](O)[C@H](O)[C@H]5O)O[C@H](CO)[C@@H](O)[C@@H]4O)O[C@H](CO)[C@@H](O)[C@@H]3O)O[C@H](CO)[C@@H](O)[C@@H]2O)[C@@H](O)[C@@H]1O [Fructofranosylnystose, fructofranosylnystose, reference compound] |  |  |  |  | D (Ineffective: the antagonistic activity was less than 65%, or the stimulating or agonistic activity of the sample was strong.) | no NK1 receptor antagonistic activity was observed at all | 
OC[C@H]1O[C@@H](O[C@@H]2[C@H](O)[C@@H](O)[C@H](O[C@@H]3[C@H](O)[C@@H](O)[C@H](O[C@@H]4[C@H](O)[C@@H](O)C(O)O[C@@H]4CO)O[C@@H]3CO)O[C@@H]2CO)[C@H](O)[C@@H](O)[C@H]1O (stereo partly shown) [Galactotetraose, galactotetraose, reference compound] |  |  |  |  | D (Ineffective: the antagonistic activity was less than 65%, or the stimulating or agonistic activity of the sample was strong.) | no NK1 receptor antagonistic activity was observed at all | 
OC[C@H]1O[C@H](OC[C@H]2O[C@H](OC[C@H]3O[C@H](OC[C@H]4O[C@H](OC[C@H]5O[C@H](OC[C@H]6O[C@H](OC[C@H]7OC(O)[C@H](O)[C@@H](O)[C@@H]7O)[C@H](O)[C@@H](O)[C@@H]6O)[C@H](O)[C@@H](O)[C@@H]5O)[C@H](O)[C@@H](O)[C@@H]4O)[C@H](O)[C@@H](O)[C@@H]3O)[C@H](O)[C@@H](O)[C@@H]2O)[C@H](O)[C@@H](O)[C@@H]1O (stereo partly shown) [Isomaltoheptaose, isomaltoheptaose, reference compound] |  |  |  |  | D (Ineffective: the antagonistic activity was less than 65%, or the stimulating or agonistic activity of the sample was strong.) | no NK1 receptor antagonistic activity was observed at all | 
OC[C@H]1O[C@H](OC[C@H]2O[C@H](OC[C@H]3O[C@H](OC[C@H]4O[C@H](OC[C@H]5O[C@H](OC[C@H]6OC(O)[C@H](O)[C@@H](O)[C@@H]6O)[C@H](O)[C@@H](O)[C@@H]5O)[C@H](O)[C@@H](O)[C@@H]4O)[C@H](O)[C@@H](O)[C@@H]3O)[C@H](O)[C@@H](O)[C@@H]2O)[C@H](O)[C@@H](O)[C@@H]1O (stereo partly shown) [Isomaltohexaose, isomaltohexaose, reference compound] |  |  |  |  | D (Ineffective: the antagonistic activity was less than 65%, or the stimulating or agonistic activity of the sample was strong.) | no NK1 receptor antagonistic activity was observed at all | 
OC[C@H]1O[C@H](OC[C@H]2O[C@H](OC[C@H]3O[C@H](OC[C@H]4O[C@H](OC[C@H]5OC(O)[C@H](O)[C@@H](O)[C@@H]5O)[C@H](O)[C@@H](O)[C@@H]4O)[C@H](O)[C@@H](O)[C@@H]3O)[C@H](O)[C@@H](O)[C@@H]2O)[C@H](O)[C@@H](O)[C@@H]1O (stereo partly shown) [Isomaltopentaose, isomaltopentaose, reference compound] |  |  |  |  | D (Ineffective: the antagonistic activity was less than 65%, or the stimulating or agonistic activity of the sample was strong.) | no NK1 receptor antagonistic activity was observed at all | 
OC[C@H]1O[C@H](OC[C@H]2OC(O)[C@H](O)[C@@H](O)[C@@H]2O)[C@H](O)[C@@H](O)[C@@H]1O (stereo partly shown) [Isomaltose, isomaltose, reference compound] |  |  |  |  | D (Ineffective: the antagonistic activity was less than 65%, or the stimulating or agonistic activity of the sample was strong.) | no NK1 receptor antagonistic activity was observed at all | 
OC[C@H]1O[C@H](OC[C@H]2O[C@H](OC[C@H]3O[C@H](OC[C@H]4OC(O)[C@H](O)[C@@H](O)[C@@H]4O)[C@H](O)[C@@H](O)[C@@H]3O)[C@H](O)[C@@H](O)[C@@H]2O)[C@H](O)[C@@H](O)[C@@H]1O (stereo partly shown) [Isomaltotetraose, isomaltotetraose, reference compound] |  |  |  |  | D (Ineffective: the antagonistic activity was less than 65%, or the stimulating or agonistic activity of the sample was strong.) | no NK1 receptor antagonistic activity was observed at all | 
OC[C@H]1O[C@H](OC[C@H]2O[C@H](OC[C@H]3OC(O)[C@H](O)[C@@H](O)[C@@H]3O)[C@H](O)[C@@H](O)[C@@H]2O)[C@H](O)[C@@H](O)[C@@H]1O (stereo partly shown) [Isomaltotriose, isomaltotriose, reference compound] |  |  |  |  | D (Ineffective: the antagonistic activity was less than 65%, or the stimulating or agonistic activity of the sample was strong.) | no NK1 receptor antagonistic activity was observed at all | 
OC[C@H]1O[C@H](O[C@H]2[C@H](O)[C@@H](O)[C@@H](O[C@H]3[C@H](O)[C@@H](O)[C@@H](O[C@H]4[C@H](O)[C@@H](O)C(O)O[C@@H]4CO)O[C@@H]3CO)O[C@@H]2CO)[C@H](O)[C@@H](O)[C@@H]1O (stereo partly shown) [Maltotetraose, maltotetraose] | B (Effective: the antagonistic activity was 65% or more and less than 75% and the more excellent performance than in the positive control was shown.) | A (Complete response: the antagonistic activity was 75% or more and much more excellent performance than in the positive control was shown.) | A (Complete response: the antagonistic activity was 75% or more and much more excellent performance than in the positive control was shown.) | A (Complete response: the antagonistic activity was 75% or more and much more excellent performance than in the positive control was shown.) | A (Complete response: the antagonistic activity was 75% or more and much more excellent performance than in the positive control was shown.) | high effect | high efficacy
